# In patent US20230348459A1, “PYRROLIDINE COMPOUND AND USE THEREOF” (SIMCERE PHARMACEUTICAL CO., LTD., priority 2020, published 2023):
# Legend:
# [1] = Plasma protein binding rate, equilibrium dialysis, dog plasma; assay type: in vitro ADME; conditions: pH 7.4, Beagle dog plasma, 6 hours dialysis
# Experimental: The protein binding rate of the compounds of the present invention in the plasma of five species (human, monkey, dog, rat and mouse) was determined by the following test method.
# • 1. Human plasma (BioIVT), beagle dog plasma (BioIVT), SD rat plasma (BioIVT), CD-1 mouse plasma (BioIVT); • 2. 96-well equilibrium dialysis plate (HTDialysis LLC, Gales Ferry, CT, HTD96B), equilibrium dialysis membrane (MWCO 12-14 K, #1101); • 3. Positive control compound warfarin; • 4. ABI QTrap 5500 liquid chromatography-mass spectrometry.
# 1. Preparation of a buffer with a concentration of 100 mM sodium phosphate and 150 mM NaCl: an alkaline solution with a concentration of 14.2 g/L Na2HPO4 and 8.77 g/L NaCl was prepared with ultrapure water, and an acidic solution with a concentration of 12.0 g/L NaH2PO4 and 8.77 g/L NaCl was prepared with ultrapure water. The alkaline solution was titrated with the acidic solution to pH 7.4 to prepare a buffer with a concentration of 100 mM sodium phosphate and 150 mM NaCl.
# 2. Preparation of dialysis membrane: the dialysis membrane was soaked in ultrapure water for 60 minutes to separate the membrane into two pieces, then soaked in 20% ethanol for 20 minutes, and finally soaked in the buffer used for dialysis for 20 minutes.
# 3. Preparation of plasma: the frozen plasma was quickly thawed at room temperature, then the plasma was centrifuged at 3,220 g at 4° C. for 10 min to remove clots, and the supernatant was collected into a new centrifuge tube. The pH of the plasma was measured and recorded, and the plasma with pH of 7-8 was used.
# 3. Preparation of compound-containing plasma samples: 10 mM stock solution of compounds of the present invention or positive control compounds were diluted with DMSO to obtain 200 µM working solution. […]
# The peak areas of the compounds on the buffer side and the plasma side were determined. […]
# All the data was calculated by the Microsoft Excel software. The plasma protein binding rate values of the compounds of the present invention were calculated.
# [2] = tested on: MCF7 cells; assay: Inhibition of the proliferation of MCF7 cells (CellTiter-Glo); assay type: cell-based; conditions: Homo sapiens, MCF7, 168 h; 7 days treatment; read-out: MCF-7 cell proliferation inhibition IC50
# Experimental: The purpose of the experiment is to determine the inhibitory effect of the compounds of the present invention on the proliferation of MCF7 cells in vitro, and to evaluate the activity of the compounds according to IC50 and maximum inhibitory efficiency.
# MCF7 cells (ATCC, HTB-22) were cultured in DMEM (Gibco, 11995-065) complete medium containing 10% fetal bovine serum. On the first day of the experiment, MCF7 cells were inoculated in a 384-well plate at a density of 500 cells/well using the complete medium, and cultured in a 37° C., 5% CO2 cell incubator overnight. The next day, the compounds to be tested were added for drug treatment, and the compound solution with a stock concentration of 10 mM was diluted with Echo550 (Labcyte Inc.) and transferred to each cell culture well. Each compound with the starting concentration for treatment of 100 nM in cells was subjected to 3-fold gradient dilution with 9 concentration points. A blank control containing 0.3% DMSO was set, and double replicate wells as controls were set at each concentration point. The culture was cultured in a 37° C., 5% CO2 cell incubator for 7 days, and the cell culture plate was taken out on day 8.
Compound,"fraction unbound at 6 h, 1 µM [1]",IC50 [2] [nM]
"C[C@@H]1Cc2c([nH]c3ccccc23)C(c2c(F)cc(N[C@H]3CCN(CCCF)C3)cc2F)N1CC(F)(F)F (stereo in doubt) [Example 4, (S)-N-(3,5-difluoro-4-((1S,3R)-3-methyl-2-(2,2,2-trifluoroethyl)-2,3,4,9-tetrahydro-1H-pyridino[3,4-b]indol-1-yl)phenyl)-1-(3-fluoropropyl)pyrrolidin-3-amine]",0.002,0.23
"C[C@@H]1Cc2c([nH]c3ccccc23)C(c2c(F)cc(N[C@H]3CCN(CCCF)C3)cc2F)N1CC(F)(F)CO (stereo in doubt) [Example 7, 3-((1S,3R)-1-(2,6-difluoro-4-(((S)-1-(3-fluoropropyl)pyrrolidin-3-yl)amino)phenyl)-3-methyl-3,4-dihydro-1H-pyridino [3,4-b]indole-2(9H)-yl)-2,2-difluoropropane-1-ol]",0.012,0.12
"C[C@@H]1Cc2c([nH]c3ccccc23)[C@@H](c2ccc(N[C@H]3CCN(CCCF)C3)cn2)N1CC(F)(F)F [Example 3, N-((S)-1-(3-fluoropropyl)pyrrolidin-3-yl)-6-((1S,3R)-3-methyl-2-(2,2,2-trifluoroethyl)-2,3,4,9-tetrahydro-1H-pyridino[3,4-b]indol-1-yl)pyridine-3-amine]",0.013,0.27
